pEC50, pIC50: −log10 of the molar value. Where two headings read alike, the source gives them in different places.
Experiments:
[1] = molecular target: T1, recombinant EGFR T790M/L858R kinase (Homo sapiens, UniProt P00533, L858R/T790M); assay: HTRF-based EGFR biochemical assay
T1 construct: Constructs spanning residues 696-1022 of the human EGFR; GST (cleaved yes); made in house; host or cells: Sf9 insect cells
Method: EGFR kinase proteins were purified by glutathione-affinity chromatography followed by size-exclusion chromatography after cleavage with TEV or thrombin to remove the GST fusion partner following established procedures. (Yun 2008; Yun 2007).
EGFR biochemical assays were carried out using a homogeneous time-resolved fluorescence (HTRF) assay as described previously. The reaction mixtures contained 1 μM biotin-Lck-peptide substrate, wild type or mutant EGFR enzyme in reaction buffer (50 mM HEPES pH 7.1, 10 mM MgCl2, 0.01% BSA. 1 mM TCEP and 0.1 mM Na3VO4) at a final volume of 10 μL. […] All reactions were carried out at room temperature in white ProxiPlate™ 384-well Plus plates (PerkinElmer) and were quenched with 5 μL of 0.2 M EDTA at 60 min. Five μL per well of the detection reagent containing 2.5 ng PT66K (Cis-bio) and 0.05 μg SAXL (Prozyme) were added, and the plates were then incubated at room temperature for 1 hour and read with an EnVision plate reader.

[2] = system: EGFR L858R/T790M/C797S Ba/F3 cell line; assay: Ba/F3 cell proliferation (MTS assay), EGFR L858R/T790M/C797S; format: cell-based, murine
Method: (§1) The EGFR mutant L858R, Del E746_A750, L858R/T790M, DelE746_A750/T790M, L858R/T790M/C797S and Del/T790M/C797S Ba/F3 cells were previously described (Zhou et al., Nature 462, (2009), 1070-1074). All cell lines were maintained in RPM 1640 (Cellgro; Mediatech Inc., Herndon, Calif.) supplemented with 10% FBS 100 units/mL penicillin, 100 units/mL streptomycin, and 2 mM glutamine. L858R cells were maintained in ACL-4 media (Invitrogen, Carlsbad, Calif.) supplemented with 5% FBS, 100 units/mL penicillin, 100 units/mL streptomycin, and 2 mM glutamine. The EGFR 1941R mutation was introduced via site directed mutagenesis using the Quick Change Site-Directed Mutagenesis kit (Stratagene: La Jolla, Calif.) according to the manufacturer's instructions. All constructs were confirmed by DNA sequencing. The constructs were shuttled into the retroviral vector JP1540 using the BD Creator™ System (BD Biosciences). Ba/F3 cells were infected with retrovirus and according to standard protocols, as described previously (Zhou 2009). Stable clones were obtained by selection in puromycin (2 μg/ml).
(§2) Growth and inhibition of growth was assessed by MTS assay and was performed according to previously established methods (Zhou 2009). The MTS assay is a colorimetric method for determining the number of viable cells that is based on the bioreduction of MTS by cells to a formazan product that is soluble in cell culture medium and can be detected spectrophotometrically. Ba/F3 cells of different EGFR genotypes were exposed to treatment and the number of cells used per experiment determined empirically and has been previously established (Zhou 2009). All experimental points were set up in six wells and all experiments were repeated at least three times. […] The curves were fitted using anon-linear regression model with a sigmoidal dose response.

[3] = molecular target: T2, EGFR T790M/L858R Ba/F3 cell line (Homo sapiens, UniProt P00533, T790M/L858R, cells depend on it); assay: Ba/F3 cell proliferation (MTS assay), EGFR T790M/L858R; format: cell-based, murine
T2 construct: "The constructs were shuttled into the retroviral vector JP1540 using the BD Creator™ System (BD Biosciences)
Method: as §1, with “All” for “The EGFR mutant L858R, Del E746_A750, L858R/T790M, DelE746_A750/T790M, L858R/T790M/C797S and Del/T790M/C797S Ba/F3 cells were previously described (Zhou et al., Nature 462, (2009), 1070-1074). All”, “L858R cells were maintained in ACL-4 media (Invitrogen, Carlsbad, Calif.) supplemented with 5% FBS, 100 units/mL penicillin, 100 units/mL streptomycin, and 2 mM glutamine.” left out
as §2, with “Ba/F3 cells of different EGFR genotypes were exposed to treatment and the number of cells used per experiment determined empirically and has been previously established (Zhou 2009).” left out

T2 sequence (P00533 whole entry T790M/L858R): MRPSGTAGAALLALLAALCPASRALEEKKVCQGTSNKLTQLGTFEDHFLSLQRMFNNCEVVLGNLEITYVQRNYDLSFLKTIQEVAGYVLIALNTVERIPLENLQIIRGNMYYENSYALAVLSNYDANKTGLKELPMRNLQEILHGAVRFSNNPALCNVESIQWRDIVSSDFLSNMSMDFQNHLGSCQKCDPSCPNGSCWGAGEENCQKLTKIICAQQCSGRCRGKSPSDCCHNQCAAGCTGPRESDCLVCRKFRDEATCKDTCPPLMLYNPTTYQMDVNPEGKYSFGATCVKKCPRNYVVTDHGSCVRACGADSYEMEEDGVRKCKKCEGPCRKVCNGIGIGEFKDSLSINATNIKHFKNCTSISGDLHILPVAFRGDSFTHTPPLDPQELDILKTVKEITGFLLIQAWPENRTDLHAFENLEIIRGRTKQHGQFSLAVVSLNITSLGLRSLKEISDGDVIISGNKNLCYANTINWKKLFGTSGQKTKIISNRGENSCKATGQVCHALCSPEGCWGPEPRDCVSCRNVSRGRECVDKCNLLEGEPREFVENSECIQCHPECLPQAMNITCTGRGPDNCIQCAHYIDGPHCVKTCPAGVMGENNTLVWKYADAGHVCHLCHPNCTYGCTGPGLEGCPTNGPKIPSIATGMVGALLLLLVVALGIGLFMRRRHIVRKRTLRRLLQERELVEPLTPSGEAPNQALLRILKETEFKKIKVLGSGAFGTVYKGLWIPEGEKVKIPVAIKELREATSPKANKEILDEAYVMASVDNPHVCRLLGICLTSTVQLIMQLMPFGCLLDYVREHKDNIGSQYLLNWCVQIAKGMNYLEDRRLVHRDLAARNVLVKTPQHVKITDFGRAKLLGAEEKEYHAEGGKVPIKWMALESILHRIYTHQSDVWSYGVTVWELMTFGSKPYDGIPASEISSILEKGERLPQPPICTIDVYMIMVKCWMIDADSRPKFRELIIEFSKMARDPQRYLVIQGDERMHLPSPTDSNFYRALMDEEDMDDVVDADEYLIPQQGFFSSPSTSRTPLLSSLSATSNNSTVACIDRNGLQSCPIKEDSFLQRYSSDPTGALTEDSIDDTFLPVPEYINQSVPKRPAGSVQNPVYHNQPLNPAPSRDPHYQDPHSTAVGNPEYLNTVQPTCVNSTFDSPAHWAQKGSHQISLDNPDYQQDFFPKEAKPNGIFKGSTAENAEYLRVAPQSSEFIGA
T1 sequence (P00533 696-1022 T790M/L858R): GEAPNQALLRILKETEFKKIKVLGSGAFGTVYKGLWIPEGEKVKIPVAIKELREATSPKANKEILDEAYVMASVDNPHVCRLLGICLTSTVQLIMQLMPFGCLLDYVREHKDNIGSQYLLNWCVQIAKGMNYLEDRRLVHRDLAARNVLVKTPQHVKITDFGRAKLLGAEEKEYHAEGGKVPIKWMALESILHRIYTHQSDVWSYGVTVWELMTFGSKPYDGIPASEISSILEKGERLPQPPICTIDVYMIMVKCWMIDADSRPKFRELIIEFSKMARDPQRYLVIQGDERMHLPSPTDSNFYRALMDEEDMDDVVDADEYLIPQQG

pIC50 [1]: > 6.60
pEC50 ([3]; absence of cetuximab, read-out: Ba/F3 cellular activity (EC50) T790M/L858R): ≤ 6.12
Activity (% cetuximab); inhibition of proliferation ([3]; compound at 1 μM in the presence of 1 μg/mL cetuximab, EGFR T790M/L858R Ba/F3): B (25 ≤ B < 50)
Activity (% DMSO control); inhibition of proliferation ([3]; compound at 1 μM, EGFR T790M/L858R Ba/F3): D (75 ≤ D)
pEC50 ([3]; read-out: Ba/F3 cellular activity (EC50) T790M/L858R + Cetuximab (1 μg/mL), presence of 1 μg/mL cetuximab): 6.30 to 6.60
Compound: O=C1c2cc(-c3ccc(N4CCNCC4)cc3)ccc2Nc2ccccc2N1Cc1ccccc1 [Compound I-11]
Activity (% cetuximab); inhibition of proliferation ([2]; compound at 1 μM in the presence of 1 μg/mL cetuximab, EGFR L858R/T790M/C797S): C (50 ≤ C < 75)
Activity (% DMSO control); inhibition of proliferation ([2]; compound at 1 μM, EGFR L858R/T790M/C797S Ba/F3): D (75 ≤ D)
